Experimental data taken from the supplement of paper PMC11665569.

Experiments:
Assay in all cases: relative viability (fraction of vehicle control); higher = more viable / less inhibited
Details in all cases: treatment time: 5 days
SW1573 = tested on: SW1573
Description: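 CCK-8 viability of SW1573 cells transfected with control, YAP/TAZ or TEAD1-4 siRNAs and treated with KRAS G12C inhibitors for 5 days. Values are normalised to vehicle control.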

KYSE410 = tested on: KYSE410
Description: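 CCK-8 viability of KYSE410 cells transfected with control, YAP/TAZ or TEAD1-4 siRNAs and treated with KRAS G12C inhibitors for 5 days. Values are normalised to vehicle control.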

H1373 = tested on: H1373
Description: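 CCK-8 viability of H1373 cells with empty vector or constitutively active YAP S127A, treated with KRAS G12C inhibitors for 5 days, normalised to vehicle control.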

C=CC(=O)N1CCN(c2ncnc3c(F)c(-c4c(O)cccc4F)c(Cl)cc23)CC1 [ARS1620]
relative viability
Details	H1373	KYSE410	SW1573
log10 concentration (uM): 0, ectopic expression: YAP S127A	0.7325	–	–
log10 concentration (uM): 0, ectopic expression: empty vector (YAP experiment)	0.658	–	–
log10 concentration (uM): 0, siRNA knockdown: TEAD1-4 siRNA 1	–	0.606	0.394
log10 concentration (uM): 0, siRNA knockdown: TEAD1-4 siRNA 2	–	0.433	0.45
log10 concentration (uM): 0, siRNA knockdown: YAP/TAZ siRNA 1	–	0.792	0.174
log10 concentration (uM): 0, siRNA knockdown: YAP/TAZ siRNA 2	–	0.59	0.156
log10 concentration (uM): 0, siRNA knockdown: negative control siRNA	–	0.869	0.929
log10 concentration (uM): 0.39794, ectopic expression: YAP S127A	0.627	–	–
log10 concentration (uM): 0.39794, ectopic expression: empty vector (YAP experiment)	0.504	–	–
log10 concentration (uM): 0.39794, siRNA knockdown: TEAD1-4 siRNA 1	–	0.338	0.297
log10 concentration (uM): 0.39794, siRNA knockdown: TEAD1-4 siRNA 2	–	0.315	0.376
log10 concentration (uM): 0.39794, siRNA knockdown: YAP/TAZ siRNA 1	–	0.438	0.172
log10 concentration (uM): 0.39794, siRNA knockdown: YAP/TAZ siRNA 2	–	0.428	0.15
log10 concentration (uM): 0.39794, siRNA knockdown: negative control siRNA	–	0.754	0.952
log10 concentration (uM): 0.69897, ectopic expression: YAP S127A	0.564	–	–
log10 concentration (uM): 0.69897, ectopic expression: empty vector (YAP experiment)	0.413	–	–
log10 concentration (uM): 0.69897, siRNA knockdown: TEAD1-4 siRNA 1	–	0.25	0.273
log10 concentration (uM): 0.69897, siRNA knockdown: TEAD1-4 siRNA 2	–	0.194	0.381
log10 concentration (uM): 0.69897, siRNA knockdown: YAP/TAZ siRNA 1	–	0.3	0.186
log10 concentration (uM): 0.69897, siRNA knockdown: YAP/TAZ siRNA 2	–	0.288	0.175
log10 concentration (uM): 0.69897, siRNA knockdown: negative control siRNA	–	0.556	0.952
log10 concentration (uM): 1, ectopic expression: YAP S127A	0.545	–	–
log10 concentration (uM): 1, ectopic expression: empty vector (YAP experiment)	0.329	–	–
log10 concentration (uM): 1, siRNA knockdown: TEAD1-4 siRNA 1	–	0.106	0.189
log10 concentration (uM): 1, siRNA knockdown: TEAD1-4 siRNA 2	–	0.0618	0.351
log10 concentration (uM): 1, siRNA knockdown: YAP/TAZ siRNA 1	–	0.123	0.2
log10 concentration (uM): 1, siRNA knockdown: YAP/TAZ siRNA 2	–	0.104	0.182
log10 concentration (uM): 1, siRNA knockdown: negative control siRNA	–	0.198	0.94
log10 concentration (uM): 1.301029996, ectopic expression: YAP S127A	0.413	–	–
log10 concentration (uM): 1.301029996, ectopic expression: empty vector (YAP experiment)	0.26	–	–
log10 concentration (uM): 1.301029996, siRNA knockdown: TEAD1-4 siRNA 1	–	0.0328	0.0763
log10 concentration (uM): 1.301029996, siRNA knockdown: TEAD1-4 siRNA 2	–	0.0272	0.233
log10 concentration (uM): 1.301029996, siRNA knockdown: YAP/TAZ siRNA 1	–	0.0271	0.136
log10 concentration (uM): 1.301029996, siRNA knockdown: YAP/TAZ siRNA 2	–	0.0298	0.139
log10 concentration (uM): 1.301029996, siRNA knockdown: negative control siRNA	–	0.0407	0.464
log10 concentration (uM): -0.30103, ectopic expression: YAP S127A	0.811	–	–
log10 concentration (uM): -0.30103, ectopic expression: empty vector (YAP experiment)	0.862	–	–
log10 concentration (uM): -0.30103, siRNA knockdown: TEAD1-4 siRNA 1	–	0.826	0.413
log10 concentration (uM): -0.30103, siRNA knockdown: TEAD1-4 siRNA 2	–	0.769	0.47
log10 concentration (uM): -0.30103, siRNA knockdown: YAP/TAZ siRNA 1	–	0.897	0.236
log10 concentration (uM): -0.30103, siRNA knockdown: YAP/TAZ siRNA 2	–	0.7891	0.209
log10 concentration (uM): -0.30103, siRNA knockdown: negative control siRNA	–	0.938	0.908
log10 concentration (uM): -0.60206, ectopic expression: YAP S127A	0.866	–	–
log10 concentration (uM): -0.60206, ectopic expression: empty vector (YAP experiment)	0.847	–	–
log10 concentration (uM): -0.60206, siRNA knockdown: TEAD1-4 siRNA 1	–	0.943	0.655
log10 concentration (uM): -0.60206, siRNA knockdown: TEAD1-4 siRNA 2	–	0.725	0.614
log10 concentration (uM): -0.60206, siRNA knockdown: YAP/TAZ siRNA 1	–	0.964	0.29
log10 concentration (uM): -0.60206, siRNA knockdown: YAP/TAZ siRNA 2	–	0.86	0.306
log10 concentration (uM): -0.60206, siRNA knockdown: negative control siRNA	–	0.916	0.964
log10 concentration (uM): -1, ectopic expression: YAP S127A	0.933	–	–
log10 concentration (uM): -1, ectopic expression: empty vector (YAP experiment)	0.917	–	–
log10 concentration (uM): -1, siRNA knockdown: TEAD1-4 siRNA 1	–	0.909	0.683
log10 concentration (uM): -1, siRNA knockdown: TEAD1-4 siRNA 2	–	0.779	0.614
log10 concentration (uM): -1, siRNA knockdown: YAP/TAZ siRNA 1	–	0.959	0.41
log10 concentration (uM): -1, siRNA knockdown: YAP/TAZ siRNA 2	–	0.883	0.417
log10 concentration (uM): -1, siRNA knockdown: negative control siRNA	–	0.976	0.976
log10 concentration (uM): -2, ectopic expression: YAP S127A	1	–	–
log10 concentration (uM): -2, ectopic expression: empty vector (YAP experiment)	0.989	–	–
log10 concentration (uM): -2, siRNA knockdown: TEAD1-4 siRNA 1	–	0.981	0.9354
log10 concentration (uM): -2, siRNA knockdown: TEAD1-4 siRNA 2	–	0.876	1.01
log10 concentration (uM): -2, siRNA knockdown: YAP/TAZ siRNA 1	–	0.988	0.817
log10 concentration (uM): -2, siRNA knockdown: YAP/TAZ siRNA 2	–	0.996	0.82
log10 concentration (uM): -2, siRNA knockdown: negative control siRNA	–	0.9803	1.02
